According to US7576094B2, “Spiro derivatives as lipoxygenase inhibitors” (Eli Lilly and Company, priority 2004, dated 2009):

What follows are compounds tested on dopaminergic neuronal cell line (assay: High Glutamate-Induced Oxidative Stress Assay (HGOS)). Conditions: Mus musculus; 30 mM glutamate, 16 h, Cell Tracker Green; read-out: protection against HGOS cell injury and cell death with an EC50.
Type: cell-based
Source text: Protection against redox stress can be evaluated in cell culture using high glutamate induced oxidative stress (HGOS) in mouse dopaminergic cell lines. The cytotoxic effect of glutamate is not due to excitotoxicity, as this cell line is devoid of inotropic glutamate receptors. Rather, the glutamate-induced toxicity of dopaminergic cells is associated with an inhibition of cystne transport which subsequently leads to depletion of intracellular glutathione (GSH) levels (Murphy T. H., et al. Neuron, Vol. 2 (1989), pp. 1547-1558), activation of neuronal 12-Lipoxygenase (Li, Y. et al. Neuron, Vol. 19 (1997), pp. 453-463), increased ROS production (Tan S. et al. J. Cell Biol., Vol. 141 (1998), pp. 1423-1432) and elevated intracellular Ca^2+ (Li, Y. et al. see supra). Some molecules were measured for their ability to protect cells against glutamate-induced stress and the assay is detailed in Examples.
This procedure was used to induce high glutamate-induced oxidative stress (HGOS) in a dopaminergic neuronal cell line. Using this assay the potency and efficacy of test articles against HGOS neuronal cell injury and cell death was established in a high throughput manner.
• Dopaminergic neuronal cell lines • DMEM-No Glucose (Life Technologies Cat # 11966-025) • L-glutamine (Life Technologies Cat # 25030-081) • L-glutamic acid, monosodium salt (Sigma Cat # G5889) • D-glucose (Sigma Cat # G-6151) • 10×HBSS buffer(pH 7.4) (950 mL Pyrogen-free water, 2.44 g/L MgCl2.6H20, 3.73 g/L KCl, 59.58 g/L Hepes, 58.44 g/L NaCI, 1.36 g/L KH2PO4, 1.91 g/L CaCl2.2H2O and pH to […] with HCl) • Cell Tracker Green fluorescent dye (Molecular Probes, Cat # 2925). Prepare a 5 μM solution in pre-warmed HBSS just prior to use. • Sterile 96-well plates pre-coated with poly-D-lysine (Corning Catalog # 3665) • 96-well deep well mother plate, DyNA Block 1000 (VWR Catalog # 40002-008) Neuronal Cells
The cells were seeded into 96-well plates at a density of 2000 per well and left to grow for 72 hours in a 33° C. incubator with 5% CO2 in air atmosphere. […]

SMILES	EC50 [nM]
Cc1c(C)c2c(c(C)c1O)CCC1(CC1)O2 [5,7,8-trimethyl-3,4-dihydrospiro[chromene-2,1′-cyclopropan]-6-ol]	< 1000
Cc1c(C)c2c(c(Cl)c1O)CCC1(CCC1)O2 [5-chloro-7,8-dimethyl-3,4-dihydrospiro[chromene-2,1′-cyclobutan]-6-ol]	< 1000
Cc1c(C)c2c(c(C)c1O)C1(CCC1)CCS2 [5′,7′,8′-trimethyl-2′,3′-dihydrospiro[cyclobutane, 1,4′-thiochromen]-6′-ol]	< 1000
